# Source: the OPERA property sets (Mansouri et al. 2018)
# Details: not given
Structure (SMILES),melting point [°C],boiling point [°C],log10 vapour pressure (mmHg),ready biodegradability,log10 Koc (L/kg),log10 biodegradation half-life (days),log10 Henry constant (atm·m³/mol),log10 Koa
O=C(c1ccc(O)c(O)c1)c1c(O)cc(O)cc1O,222,–,–,–,–,–,–,–
C1O[C@@H]1[C@@H]1CO1,3.5,144,–,–,–,–,–,–
NS(=O)(=O)c1ccc([N+](=O)[O-])cc1,179,–,–,–,–,–,–,–
[N-]=[N+]=NC(=O)c1ccccc1,32,–,–,–,–,–,–,–
N#CC(CCc1ccc(Cl)cc1)(Cn1cncn1)c1ccccc1 (stereo unspecified),125,–,-7.43,–,–,–,–,–
CC(O)CC(C)O (stereo unspecified),–,199,–,readily biodegradable,–,–,–,–
C=CCc1ccc(O)c(OC)c1,-9.1,253,-1.65,–,–,–,–,–
C(=Nc1ccccc1)c1ccccc1,54,310,–,–,–,–,–,–
CNC(=O)Nc1ccc(Cl)c(Cl)c1,–,–,–,–,2.46,–,–,–
CCC(C)OC=O (stereo unspecified),–,97,–,–,–,–,–,–
CCCCCC(C)CC (stereo unspecified),-108,144,0.796,–,–,0.699,–,–
N#CC1CC2CCC1C2 (stereo unspecified),44,–,–,–,–,–,–,–
COC(=O)c1sccc1S(=O)(=O)NC(=O)Nc1nc(C)nc(OC)n1,176,–,-9.89,–,1.45,–,–,–
Cc1ccc2oc(=O)ccc2c1,76.5,304,–,–,–,–,–,–
NNC(=O)c1ccccc1,115,–,–,–,–,–,–,–
CCCCOC(=O)C(=O)[C@H]1[C@H](C)C[C@H]2[C@@H]3C[C@H](F)C4=CC(=O)C=C[C@]4(C)[C@H]3[C@@H](O)C[C@@]21C,195,–,–,–,–,–,–,–
Cc1ncc(CO)c(N)n1,198,–,–,–,–,–,–,–
CCCCC(C)Br (stereo unspecified),–,144,0.86,–,–,–,–,–
CC(C)(C#N)C(C)(C)C#N,170,–,–,–,–,–,–,–
CC1CCC(C(C)C)C(O)C1 (stereo unspecified),39,–,-1.08,not readily biodegradable,–,–,–,–
CC1CC(=O)CC(C)(C)C1 (stereo unspecified),–,189,–,not readily biodegradable,–,–,–,–
Cc1ccccc1OP(=O)(Oc1ccccc1C)Oc1ccccc1C,–,–,–,readily biodegradable,–,–,–,–
CC(C)(C)[C@@H](O)[C@H](Cc1ccc(Cl)cc1Cl)n1cncn1,148,–,–,–,–,–,–,–
C=C1C(=O)O[C@@H]2C[C@@]3(C)CCC[C@H](C)C3=C[C@H]12,76,275,–,–,–,–,–,–
[N-]=[N+]=CC(=O)OC[C@H](N)C(=O)O,154,–,–,–,–,–,–,–

Structure (SMILES),melting point [°C],boiling point [°C],log10 vapour pressure (mmHg),ready biodegradability,log10 Koc (L/kg),log10 biodegradation half-life (days),log10 Henry constant (atm·m³/mol),log10 Koa
Cc1ccc(SSc2ccc(C)cc2)cc1,47.5,–,–,–,–,–,–,–
CCc1cc2cc(OC)c(OC)cc2c(Cc2ccccc2)n1,78.5,–,–,–,–,–,–,–
c1ccc(NNc2ccccc2)cc1,131,309,-3.36,–,2.98,–,–,–
CCOC(C)Cl (stereo unspecified),–,93.5,–,–,–,–,–,–
FC(F)(F)C(F)(F)C(F)(F)C(F)(F)C(F)(F)C(F)(F)I,-46,118,–,–,–,–,–,–
Clc1cc(Cl)c2c(c1Cl)Oc1c(Cl)cc(Cl)c(Cl)c1O2,238,–,-10.3,–,–,–,–,–
CCOC(=O)c1cccc2ccccc12,–,310,–,–,–,–,–,–
c1cnoc1,–,95,1.66,–,–,–,–,–
Cc1c(C)c(C)c(O)c(C)c1C,128,267,–,–,–,–,–,–
CCCCOC(=O)C(C)C,–,155,–,–,–,–,–,–
CCCC(CC)C(C)CC (stereo unspecified),–,165,–,–,–,–,–,–
Clc1ccc2c(c1)oc1c(Cl)c(Cl)cc(Cl)c12,190,–,–,–,–,–,–,–
CC(C)C1=CC2=C(CC1)[C@@]1(C)CCC[C@@](C)(C(=O)O)[C@@H]1CC2,164,–,–,–,–,–,–,–
Cc1cccc(C)c1NC(=O)C1CCCCN1C (stereo unspecified),150,–,–,–,–,–,–,–
C#CCCCCCCC,-50,151,0.797,–,–,–,–,–
CCN(CC)N=O,–,177,-0.0655,not readily biodegradable,–,–,-5.44,–
CN(C)CCO,-59,134,0.502,readily biodegradable,–,–,–,–
COC(=O)CBr,–,132,–,–,–,–,–,–
CCOC(=O)CCc1ccccc1,–,247,–,–,–,–,–,–
CN(C)NC(=O)CCC(=O)O,154,–,–,–,0.95,–,–,–
CC(=O)C1CCCC1,–,158,–,–,–,–,–,–
CCCCOC(=O)c1ccccc1C(=O)OCCCC,-35,340,-4.7,readily biodegradable,3.14,–,-5.74,–
CC(C)COC(=O)C(C)C,-80.7,149,0.636,–,–,–,–,–
C[C@@H]1C(=O)OC[C@H]2[C@@H]1CC[C@@H]2C,60.5,–,–,–,–,–,–,–
O=C(O)c1ccc(O)c([N+](=O)[O-])c1,230,–,–,–,–,–,–,–

Structure (SMILES),melting point [°C],boiling point [°C],log10 vapour pressure (mmHg),ready biodegradability,log10 Koc (L/kg),log10 biodegradation half-life (days),log10 Henry constant (atm·m³/mol),log10 Koa
CCC1(CC)C(=O)NC(=O)NC1=O,190,–,–,–,–,–,–,–
COC(=O)C(F)(F)F,–,43.2,–,–,–,–,–,–
OCCCCO,20.4,235,-1.98,readily biodegradable,–,–,–,–
FC(Cl)(Cl)CCl,-140,88,–,–,–,–,–,–
CCOC(=O)CCCC(C)=O,–,222,–,–,–,–,–,–
CCC(CC)c1ccccn1,–,195,–,–,–,–,–,–
c1ccc2c(c1)CCc1ccccc1-2,34.5,–,-3.22,–,–,–,–,–
CCCC(CC)C(C)C (stereo unspecified),–,138,–,–,–,–,–,–
CCC(C)CC(C)N (stereo unspecified),–,132,–,–,–,–,–,–
NC(=O)c1ccc(F)cc1,156,–,–,–,–,–,–,–
CCCCCCC(CCCCCC)CCCCCC,-28.3,–,–,–,–,–,–,–
COC(=O)C(=O)Cl,–,119,–,–,–,–,–,–
O=C(O)c1ccc2c(c1)OCO2,229,–,–,–,–,–,–,–
Nc1cc([N+](=O)[O-])cc([N+](=O)[O-])c1,163,–,–,–,2.55,–,–,–
BrC/C=C/CBr,53.4,203,–,–,–,–,–,–
Cc1cc(O)c(C(C)(C)C)cc1Sc1cc(C(C)(C)C)c(O)cc1C,162,–,–,not readily biodegradable,–,–,–,–
O=[N+]([O-])c1ccc2c(c1)CCN2,93,–,–,–,–,–,–,–
C=COCCOCCO,–,196,–,–,–,–,–,–
C=C(C)C(=O)OCCCC,-75,160,0.326,readily biodegradable,–,–,–,–
CCCCCCCCCCOc1ccc(C(=O)O)cc1,114,–,–,–,–,–,–,–
Oc1ccc(O)c(Cc2ccccc2)c1,106,–,–,–,–,–,–,–
FC(F)(F)C(F)(F)C(F)(F)C(F)(F)C(F)(F)C(F)(F)C(F)(F)C(F)(F)C(F)(F)F,-16,123,–,–,–,–,–,–
O=C(C(F)(F)Cl)C(F)(F)Cl,–,44.5,–,–,–,–,–,–
CC(=O)Oc1c[nH]c2ccccc12,129,–,–,–,–,–,–,–
CC1=CCc2ccccc21,–,198,–,–,–,0.477,–,–

Structure (SMILES),melting point [°C],boiling point [°C],log10 vapour pressure (mmHg),ready biodegradability,log10 Koc (L/kg),log10 biodegradation half-life (days),log10 Henry constant (atm·m³/mol),log10 Koa
CC(C)N=C=NC(C)C,–,147,–,–,–,–,–,–
NNC(=O)c1ccc(Br)cc1,166,–,–,–,–,–,–,–
COc1cc(OC)nc(NC(=O)NS(=O)(=O)c2c(-c3nnn(C)n3)cnn2C)n1,170,–,-10.5,–,1.89,–,–,–
Cc1ccc[nH]c1=O,142,289,–,–,–,–,–,–
C=C(C)CCCCCC,-77.8,145,–,–,–,–,–,–
FC(F)=CCl,-138,-18.5,3.55,–,–,–,–,–
CCCC#CCCCC,–,152,–,–,–,–,–,–
NNC(=O)c1ccc(N)cc1,226,–,–,–,–,–,–,–
CCCCCCCCCCCCCCCCCCC#N,–,–,–,readily biodegradable,–,–,–,–
NCc1cccnc1,-21.1,226,–,–,–,–,–,–
ClCCN(CCCl)c1ccc2ccccc2c1,55,–,–,–,–,–,–,–
CSCCSC,–,183,–,–,–,–,–,–
Clc1ccc(-c2c(Cl)ccc(Cl)c2Cl)cc1Cl,–,–,–,–,–,–,–,9.06
CCCCOC(=O)COc1ccc(Cl)cc1Cl,–,–,-4.21,–,–,–,–,–
C[C@H]1C[C@@H](OC(=O)c2ccccc2)CC(C)(C)N1,70.5,–,–,–,–,–,–,–
CCCCCCCCCCI,-16.3,–,-1.85,–,–,–,–,–
CI,-66.4,42.5,2.61,–,–,–,-2.28,2.16
c1ccc2n[nH]nc2c1,–,–,–,not readily biodegradable,–,–,–,–
CC(=O)C=C(C)C,-59,130,0.914,readily biodegradable,–,–,–,–
C=COCCCCCC,–,143,–,–,–,–,–,–
CCOC(=O)C(=O)OCC,-40.6,186,-0.383,readily biodegradable,–,–,–,–
CC(c1c(O)c2ccccc2oc1=O)c1c(O)c2ccccc2oc1=O,178,–,–,–,–,–,–,–
S=C1NC(=S)C(c2ccccc2)(c2ccccc2)N1,263,–,–,–,–,–,–,–
CCOC(=O)c1c(N)sc2c1CCN(Cc1ccccc1)C2,112,–,–,–,–,–,–,–
COCC(=O)N(c1c(C)cccc1C)N1CCOC1=O,104,–,-7.61,–,–,–,–,–

Structure (SMILES),melting point [°C],boiling point [°C],log10 vapour pressure (mmHg),ready biodegradability,log10 Koc (L/kg),log10 biodegradation half-life (days),log10 Henry constant (atm·m³/mol),log10 Koa
Ic1ccc2c(c1)Oc1ccccc1O2,95,–,-4.5,–,–,–,–,–
O=C(C=NO)c1ccccc1,129,–,–,–,–,–,–,–
O=C(O)C(Cl)(Cl)CCl,65.5,–,–,–,–,–,–,–
CN(C)C(C)(C)CO,19,160,–,–,–,–,–,–
CCN(CC)CC#CCOC(=O)C(O)(c1ccccc1)C1CCCCC1.Cl (stereo unspecified),130,–,–,–,–,–,–,–
NC1=NCCS1,85.3,–,–,–,–,–,–,–
O=C(Oc1ccc2ccccc2c1)c1ccccc1O,95.5,–,–,–,–,–,–,–
Brc1cc2c(cc1Br)Oc1cc(Br)c(Br)cc1O2,334,–,-8.32,–,–,–,–,–
CCCC(O)CC(C)C (stereo unspecified),-81,164,–,–,–,–,–,–
C[C@@H]1O[C@@H](O[C@@H]2C=C3CC[C@@H]4[C@H](CC[C@]5(C)[C@@H](c6ccc(=O)oc6)CC[C@]45O)[C@@]3(C)CC2)[C@H](O)[C@H](O)[C@H]1O,221,–,–,–,–,–,–,–
CC(=O)C(=O)O,13.8,–,0.111,–,–,–,-8.49,–
CC1=C[C@H]2O[C@@H]3[C@H](O)C[C@](C)([C@@]2(CO)[C@H](O)C1=O)[C@]31CO1,152,–,–,–,–,–,–,–
C[N+](C)(C)CCCl.[Cl-],–,–,-7.12,–,–,–,–,–
O=C(Nc1ccccc1)c1cc(Cl)ccc1O,211,–,–,–,–,–,–,–
O=C(O)C(F)(F)C(F)(F)C(F)(F)C(F)(F)C(F)(F)C(F)(F)C(F)(F)C(F)(F)C(F)(F)C(F)(F)C(F)(F)C(F)(F)C(F)(F)F,–,–,–,not readily biodegradable,–,–,–,–
CC(C)CCOC(=O)OCCC(C)C,–,234,–,–,–,–,–,–
C=CCC(O)CC=C,–,151,–,–,–,–,–,–
Clc1cc(Cl)c(OCC#CI)cc1Cl,114,–,–,–,–,–,–,–
Cc1ncccn1,-4,138,–,–,–,–,–,–
C#CCCCCCCCCCCCCCCCC,22.5,313,–,–,–,–,–,–
O=C1NC(=O)c2c1cccc2[N+](=O)[O-],214,–,–,–,–,–,–,–
O=C1C=CC(=O)c2c(O)cccc21,155,–,–,–,–,–,–,–
Sc1ccc2ccccc2c1,81,288,–,not readily biodegradable,–,–,–,–
CC(C)C(OC(=O)c1cccnc1)c1ccc(Cl)cc1 (stereo unspecified),61,–,–,–,–,–,–,–

# Same assay, conditions: fish
Structure (SMILES),log10 biotransformation half-life (days),log10 BCF
C=C(CCCC)CCCCCCCC,0.88,–
CC1CCC(C(C)C)C(O)C1 (stereo unspecified),-1.19,1.03
Cc1ccccc1OP(=O)(Oc1ccccc1C)Oc1ccccc1C,0.5,–
CC(C)C1=CC2=C(CC1)[C@@]1(C)CCC[C@@](C)(C(=O)O)[C@@H]1CC2,–,1.4
CC1CCC(C(=O)O)C(C(=O)O)C1 (stereo unspecified),–,0.38
CCCCOC(=O)c1ccccc1C(=O)OCCCC,-0.4,2.22
Clc1ccc(-c2c(Cl)ccc(Cl)c2Cl)cc1Cl,2.63,–
CC1CNC(=S)N1 (stereo unspecified),–,1
